Measurements reported in patent US20120021117A1, “METHOD FOR PRESERVING DRINKS” (LANXESS DEUTSCHLAND GMBH, priority 2008, published 2012).
Read-outs that look alike come from different tables or passages of the source.

Tests used:
[1] = Microbiological keeping time of bottled orange juice drink without sorbate (Example 3); conditions: 0.5 l PET bottles, 500 ppm limonene-containing mixture and/or 200 ppm of DMDC, visual and organoleptic inspection
Text: The samples were thereafter regularly inspected visually and organoleptically.

Saccharomyces cerevisiae = experiment: Activity of DMDC, LF and their mixtures in inoculated apple juice drink, cell count after one week; format: cell-based; conditions: inoculum 375 cells/ml
Description: The activity of the individual components DMDC and limonene (in a formulation) and the activity of mixtures of DMDC and limonene (in a formulation) was tested against Saccharomyces cerevisiae.
For this, an apple juice drink was inoculated with 375 cells of Saccharomyces cerevisiae per ml and the active ingredient concentrations reported in Table 1 were added. In the table, DMDC is dimethyl dicarbonate, added as such.
LF was added first and then DMDC. Subsequently thereto the mixtures were thoroughly shaken and incubated at 26° C. for one week. The cell count present was then determined.

Lactobacillus brevis = experiment: Microbiological colony count determination in inoculated apple juice/water 1:1 after 24 hours; format: cell-based; conditions: Cell inoculum approximately 100 cells/ml; DMDC concentration not given; duplicate
[2] = orange juice drink with potassium sorbate equivalent to 100 ppm of sorbic acid, 0.5 l PET bottles; 500 ppm limonene-containing mixture and/or 200 ppm of DMDC; visual and organoleptic inspection
Description: Thereafter the drink was packaged directly on a drinks bottling line (10 000 l/h) into 0.5 l PET bottles.
In this case the limonene-containing mixture was added during final mixing of the drink, whereas for metering DMDC, an electromagnetic metering pump connected upstream of the filler was used.
As comparative experiment, the same drink was packaged non-preserved, or packaged treated only with DMDC or only with limonene.

COC(=O)OC(=O)OC [DMDC, dimethyl dicarbonate]
microbiological keeping time [1]: approximately 20 days | efficacy, defined as freedom from cells (concentration, component alone) (Saccharomyces cerevisiae): above 150 ppm | cell count determination after 24 hours (Lactobacillus brevis): 54/75

C/C=C/C=C/C(=O)O [sorbic acid]
microbiological keeping time [2]: approximately 6 days
